Assay results as given in ChEMBL document CHEMBL1144946, “4-Amino-2-(aryl)-butylbenzamides and Their conformationally constrained analogues. Potent antagonists of the human neurokinin-2 (NK(2)) receptor” (Bioorg Med Chem Lett, 2003).

Legend:
[1] = species on record: Oryctolagus cuniculus; test: Ability to antagonise the contractile effects of the selective NK2 receptor agonist [B-ala8]NKA in the rabbit pulmonary artery (RPA); format: functional; settings: read-out: pA2 (converted)
[2] = biological target: T1, Substance-K receptor (Homo sapiens, UniProt P21452); test: Binding affinity for human tachykinin receptor 2 expressed in CHO cells using [125I]- NKA radioligand; format: cell-based
T1 sequence (P21452 whole entry): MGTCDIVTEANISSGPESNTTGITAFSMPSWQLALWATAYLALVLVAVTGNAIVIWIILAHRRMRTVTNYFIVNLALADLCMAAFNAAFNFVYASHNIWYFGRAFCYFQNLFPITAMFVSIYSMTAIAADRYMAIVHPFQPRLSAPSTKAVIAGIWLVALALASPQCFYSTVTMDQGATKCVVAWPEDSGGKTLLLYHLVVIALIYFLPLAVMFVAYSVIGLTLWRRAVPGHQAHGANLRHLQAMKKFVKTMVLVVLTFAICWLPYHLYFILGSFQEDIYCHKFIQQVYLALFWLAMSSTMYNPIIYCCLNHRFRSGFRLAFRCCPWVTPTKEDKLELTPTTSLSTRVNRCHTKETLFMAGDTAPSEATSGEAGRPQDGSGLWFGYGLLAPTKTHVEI

[3] = biological target: T1, Substance-K receptor; test: Binding affinity towards human Tachykinin receptor 2 using [125I]- NKA radioligand expressed in CHO cells; format: cell-based
[4] = biological target: T2, Substance-K receptor (Rattus norvegicus) (UniProt P16610); test: Binding affinity towards […] using [125I]- NKA radioligand expressed in rat duodenum at 100 nM
T2 sequence (whole entry): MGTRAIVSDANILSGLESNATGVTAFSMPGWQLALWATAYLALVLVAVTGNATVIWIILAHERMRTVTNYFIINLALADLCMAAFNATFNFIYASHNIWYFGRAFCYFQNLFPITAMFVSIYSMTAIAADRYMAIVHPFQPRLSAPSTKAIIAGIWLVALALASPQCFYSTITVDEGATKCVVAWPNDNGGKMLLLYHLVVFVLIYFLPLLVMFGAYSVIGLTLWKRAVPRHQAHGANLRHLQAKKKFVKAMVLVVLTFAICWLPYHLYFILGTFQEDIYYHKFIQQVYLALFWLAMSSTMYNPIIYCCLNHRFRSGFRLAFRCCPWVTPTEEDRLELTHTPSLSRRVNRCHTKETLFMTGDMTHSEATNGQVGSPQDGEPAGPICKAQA

Structure (SMILES)	pIC50 [2]	pIC50 [3]	inhibition [4] [%]	Kb [1] [nM]
COc1ccccc1C(=O)N1CCCC(CCN2CC(N3CCOCC3)C2)(c2ccc(Cl)c(Cl)c2)C1 (stereo not given)				20
CN(CC(CCN1CCC(c2nc3ccccc3[nH]2)CC1)c1ccc(Cl)c(Cl)c1)C(=O)c1ccccc1 (stereo not given)	7.3			50.1
CN(CC(CCN1CCC(n2ccnc2)CC1)c1ccc(Cl)c(Cl)c1)C(=O)c1ccccc1 (stereo not given)	7.7			5.01
CN(CC(CCN1CCC(n2c(O)nc3ccccc32)C1)c1ccc(Cl)c(Cl)c1)C(=O)c1ccccc1 (stereo not given)	7.4			
CC(=O)NC1(c2ccccc2)CCN(CCC(CN(C)C(=O)c2ccccc2)c2ccc(Cl)c(Cl)c2)CC1 (stereo not given)		8.9		0.794
CN(CC(CCN1CCC(c2ccccc2)CC1)c1ccc(Cl)c(Cl)c1)C(=O)c1ccccc1 (stereo not given)	< 7			
CN(CC(CCN1CCCC(n2c(=O)[nH]c3ccccc32)C1)c1ccc(Cl)c(Cl)c1)C(=O)c1ccccc1 (stereo not given)	7.1			
CN(CC(CCN1CCC(O)(c2ccccc2)CC1)c1ccc(Cl)c(Cl)c1)C(=O)c1ccccc1 (stereo not given)	8.9			0.316
CN(CC(CCN1CCC(n2cncn2)CC1)c1ccc(Cl)c(Cl)c1)C(=O)c1ccccc1 (stereo not given)	6.8			79.4
CN(CC(CCN1CCC(n2c(O)nc3ccccc32)CC1)c1ccc(Cl)c(Cl)c1)C(=O)c1ccccc1 (stereo not given)	8.9		81	3.98
CN(CC(CCN1CCC(O)(c2ncc[nH]2)CC1)c1ccc(Cl)c(Cl)c1)C(=O)c1ccccc1 (stereo not given)	6.6			
CN(CC(CCN1CCC(n2cnc3ccccc32)CC1)c1ccc(Cl)c(Cl)c1)C(=O)c1ccccc1 (stereo not given)	8.1			2.51
CN(CC(CCN1CCCC(n2c(O)nc3ccccc32)CC1)c1ccc(Cl)c(Cl)c1)C(=O)c1ccccc1 (stereo not given)	8.4			3.98
CCN(CC)C(=O)C1CCCN(CCC(CN(C)C(=O)c2ccccc2)c2ccc(Cl)c(Cl)c2)C1 (stereo not given)			61	

More lines, main results first:

pIC50 [2]	pIC50 [3]	inhibition [4] [%]	Structure (SMILES)	Kb [1] [nM]
6.7			O=S(=O)(c1ccccc1)N1CCC(CCN2CC(N3CCOCC3)C2)(c2ccc(Cl)c(Cl)c2)C1 (stereo not given)	63.1
6.3			O=C(CC1CC1)N1CCC(CCN2CC(N3CCOCC3)C2)(c2ccc(Cl)c(Cl)c2)C1 (stereo not given)	
7.2			O=C(c1ccccc1)N1CC(CCN2CC(N3CCOCC3)C2)(c2ccc(Cl)c(Cl)c2)C1	7.94
7.7			CN(CC(CCN1CC(N2CCOCC2)C1)c1ccc(Cl)c(Cl)c1)C(=O)c1ccccc1 (stereo not given)	1.26
6.3			CN(CC(CCN1CCCCC1)c1ccc(Cl)c(Cl)c1)C(=O)c1ccccc1 (stereo not given)	
6.4			CN(CC(CCN1CCC(O)CC1)c1ccc(Cl)c(Cl)c1)C(=O)c1ccccc1 (stereo not given)	
6.8			CN(CC(CCN1CC(n2ccnc2)C1)c1ccc(Cl)c(Cl)c1)C(=O)c1ccccc1 (stereo not given)	25.1
7.5			O=C(c1ccccc1)N1CCC(CCN2CC(N3CCOCC3)C2)(c2ccc(Cl)c(Cl)c2)C1 (stereo not given)	
